Test results reported in patent US20260274853A1, “BIFUNCTIONAL COMPOUNDS CONTAINING PYRIMIDINE DERIVATIVES FOR DEGRADING CYCLIN-DEPENDENT KINASE 2 VIA UBIQUITIN PROTEASOME PATHWAY” (NIKANG THERAPEUTICS, INC., priority 2022, published 2026).

Each molecule was assayed against T1, CDK2 (Homo sapiens, UniProt P24941) (assay: Inhibition of CDK2: phospho-Rb (S807/811) HTRF measurement in OVCAR3 cells). Settings: 24 h compound treatment, read-out: pRb (nM), IC50 in pRB(S807/811) assay.
T1 construct: High-Throughput Measurement of Cellular Endogenous CDK2; endogenous in cells; host or cells: OVCAR3
Type: cell-based
Procedure: Phosphorylation of RB protein at S807/811 were measured using HTRF phospho-RB cellular kits (Cat #64RBS807PEG) from Cisbio.
On Day 1, OVCAR3 (dependent on CDK2) cells were seeded into 96-well tissue-culture treated plates at 20,000 cells/well in 200 μL and incubated overnight at 37° C. in CO2 atmosphere. On Day 2, the cells were treated with test compounds at concentrations from 0.3 to 10,000 nM using HP D300 digital dispenser. Twenty-four hours after compound treatment, cell culture media was removed by flicking the plate and tapping the plate against clean paper towel. Immediately 30 μL 1× lysis buffer was supplemented from the kit and the plate was incubated at room temperature on shaker for 30 min. After homogenization by pipetting up and down, 8 μL cell lysate from 96-well cell culture plate was transferred to 384-well small volume white detection plate. 2 μL premixed detection solution was added and the plate was covered with sealer. To prepare the detection solution, d2 conjugated-phospho-RB antibody and Eu-cryptate conjugated phosphor-RB antibody were diluted into detection buffer following manufacturer's instruction. Detection plates were incubated for 4 h at room temperature and read on ClarioStar (BMG Labtech) in TR-FRET mode (665 nM and 620 nM). The TR-FRET ratio (665 nM/620 nM) was plotted against the compound concentration and normalized to DMSO controls. Half maximal inhibition concentration (IC50) values are calculated with a four-parameter logistic fit using GraphPad Prism (version 8; La Jolla, CA).
In the table below, A indicates a IC50 of less than 0.1 μM; B indicates a IC50 of greater than or equal to 0.1 μM but less than 0.5 μM; C indicates a IC50 of greater than or equal to 0.5 μM but less than 1 μM; and D indicates a […] of greater than or equal to 1 μM but less than 10 μM.
With `O=C1CCC(Nc2ccc(N3CCN(Cc4cccc(S(=O)(=O)N5CCC(Nc6ncc(C(F)(F)F)c(-c7cnn(CC(F)(F)F)c7)n6)CC5)c4)CC3)cc2)C(=O)N1` (centres unmarked) [Example 53] the IC50 was < 100 nM. `Cn1nc(N2CCC(=O)NC2=O)c2ccc(C3CCN(Cc4cc(S(=O)(=O)N5CCC(Nc6ncc(C(F)(F)F)c(-c7cnn(CC(F)(F)F)c7)n6)CC5)ccc4C(F)(F)F)CC3(F)F)cc21` (centres unmarked) [Example 55] was tested, and the IC50 was 1000 to 10000 nM. `O=C1CCN(C2CCCN(Cc3cccc(S(=O)(=O)N4CCC(Nc5ncc(C(F)(F)F)c(-c6cnn(CC(F)(F)F)c6)n5)CC4)c3)C2)C(=O)N1` (centres unmarked) [Example 80, 1-(1-(3-((4-((4-(1-(2,2,2-trifluoro-ethyl)-1H-pyrazol-4-yl)-5-(trifluoromethyl)-pyrimidin-2-yl)amino)-piperidin-1-yl)sulfonyl)benzyl)-piperidin-3-yl)dihydropyrimidine-2,4(1H,3H)-dione] gave an IC50 of 100 to 500 nM. For `Cn1nc(N2CCC(=O)NC2=O)c2ccc(C3CCN(CC4CCN(S(=O)(=O)[C@H]5CC[C@H](Nc6ncc(C(F)(F)F)c(-c7cnn(CC(F)(F)F)c7)n6)CC5)CC4)CC3)cc21` [Example 94, 1-(1-methyl-6-(1-((1-(((1r,4r)-4-((4-(1-(2,2,2-trifluoroethyl)-1H-pyrazol-4-yl)-5-(trifluoromethyl)pyrimidin-2-yl)-amino)cyclohexyl)sulfonyl)piperidin-4-yl)methyl)piperidin-4-yl)-1H-indazol-3-yl)dihydropyrimidine-2,4(1H,3H)-dione], the IC50 was 100 to 500 nM. With `Cn1nc(N2CCC(=O)NC2=O)c2ccc(C3CCN(C(c4cccc(S(=O)(=O)N5CCC(Nc6ncc(C(F)(F)F)c(-c7cnn(CC(F)(F)F)c7)n6)CC5)c4)C(F)(F)F)CC3)cc21` (centres unmarked) [Example 91, 1-(1-methyl-6-(1-(2,2,2-trifluoro-1-(3-((4-((4-(1-(2,2,2-trifluoroethyl)-1H-pyrazol-4-yl)-5-(trifluoromethyl)-pyrimidin-2-yl)amino)piperidin-1-yl)-sulfonyl)phenyl)ethyl)piperidin-4-yl)-1H-indazol-3-yl)dihydro-pyrimidine-2,4(1H,3H)-dione] the IC50 was 100 to 500 nM. For `O=C1CCC(N2CCN(Cc3cccc(S(=O)(=O)N4CCC(Nc5ncc(C(F)(F)F)c(-c6cnn(CC(F)(F)F)c6)n5)CC4)c3)CC2)C(=O)N1` (centres unmarked) [Example 76, 3-(4-(3-((4-((4-(1-(2,2,2-trifluoro-ethyl)-1H-pyrazol-4-yl)-5-(trifluoromethyl)-pyrimidin-2-yl)amino)-piperidin-1-yl)-sulfonyl)benzyl)piperazin-1-yl)-piperidine-2,6-dione], the IC50 was 100 to 500 nM. Molecule `Cn1nc(N2CCC(=O)NC2=O)c2ccc(C3CCN(Cc4cccc(S(=O)(=O)N5CC[C@@H](Nc6ncc(C(F)(F)F)c(-c7cnn(CC(F)(F)F)c7)n6)[C@@H](F)C5)c4)CC3(F)F)cc21` (stereo partly drawn) [Example 66, 1-(6-(3,3-difluoro-1-(3-(((3S,4R)-3-fluoro-4-((4-(1-(2,2,2-trifluoroethyl)-1H-pyrazol-4-yl)-5-(trifluoromethyl)-pyrimidin-2-yl)amino)piperidin-1-yl)-sulfonyl)benzyl)piperidin-4-yl)-1-methyl-1H-indazol-3-yl)dihydro-pyrimidine-2,4(1H,3H)-dione] has an IC50 of 1000 to 10000 nM. Molecule `Cn1nc(N2CCC(=O)NC2=O)c2ccc(C3CCN(Cc4cccc(S(=O)(=O)N5CCC(Nc6ncc(C(F)(F)F)c(-c7cnn(CC(F)(F)F)c7)n6)CC5)c4C(F)(F)F)CC3)cc21` [Example 87, 1-(1-methyl-6-(1-(3-((4-((4-(1-(2,2,2-trifluoroethyl)-1H-pyrazol-4-yl)-5-(trifluoromethyl)pyrimidin-2-yl)-amino)-piperidin-1-yl)sulfonyl)-2-(trifluoro-methyl)benzyl)piperidin-4-yl)-1H-indazol-3-yl)dihydro-pyrimidine-2,4(1H,3H)-dione] has an IC50 of 500 to 1000 nM. `O=C1CCN(c2ccc(N3CCN(Cc4cccc(S(=O)(=O)N5CCC(Nc6ncc(C(F)(F)F)c(-c7cnn(-c8ccccc8F)c7)n6)CC5)c4)CC3)cc2)C(=O)N1` [Example 71, 1-(4-(4-(3-((4-((4-(1-(2-fluorophenyl)-1H-pyrazol-4-yl)-5-(trifluoromethyl)-pyrimidin-2-yl)amino)piperidin-1-yl)sulfonyl)benzyl)piperazin-1-yl)-phenyl)dihydropyrimidine-2,4(1H,3H)-dione] was tested, and the IC50 was 100 to 500 nM. In the case of `Cn1nc(N2CCC(=O)NC2=O)c2ccc(N3CCC(CN4CCN(S(=O)(=O)N5CCC(Nc6ncc(C(F)(F)F)c(-c7cnn(CC(F)(F)F)c7)n6)CC5)CC4)CC3)cc21` [Example 97, 1-(1-methyl-6-(4-((4-((4-((4-(1-(2,2,2-trifluoroethyl)-1H-pyrazol-4-yl)-5-(trifluoromethyl)pyrimidin-2-yl)amino)-piperidin-1-yl)sulfonyl)piperazin-1-yl)-methyl)piperidin-1-yl)-1H-indazol-3-yl)dihydropyrimidine-2,4(1H,3H)-dione], the IC50 is reported as 100 to 500 nM. In the case of `O=C1CCC(N2CCN(Cc3cccc(S(=O)(=O)N4CCC(Nc5ncc(C(F)(F)F)c(-c6cnn(CC(F)(F)F)c6)n5)CC4)c3)C3CC32)C(=O)N1` (centres unmarked) [Example 63, 3-(5-(3-((4-((4-(1-(2,2,2-trifluoro-ethyl)-1H-pyrazol-4-yl)-5-(trifluoromethyl)-pyrimidin-2-yl)amino)-piperidin-1-yl)-sulfonyl)benzyl)-2,5-diazabicyclo[4.1.0]-heptan-2-yl)-piperidine-2,6-dione], the IC50 is reported as 100 to 500 nM. Molecule `Cn1nc(N2CCC(=O)NC2=O)c2ccc(N3CC4CCC(C3)N4Cc3cccc(S(=O)(=O)N4CC[C@H](Nc5ncc(C(F)(F)F)c(-c6cnn(CC(F)(F)F)c6)n5)[C@H](F)C4)c3)cc21` [Example 85, 1-(6-(8-(3-(((3R,4S)-3-fluoro-4-((4-(1-(2,2,2-trifluoroethyl)-1H-pyrazol-4-yl)-5-(trifluoromethyl)pyrimidin-2-yl)-amino)-piperidin-1-yl)sulfonyl)benzyl)-3,8-diazabicyclo[3.2.1]octan-3-yl)-1-methyl-1H-indazol-3-yl)dihydro-pyrimidine-2,4(1H,3H)-dione] has an IC50 of 100 to 500 nM. `Cn1nc(N2CCC(=O)NC2=O)c2ccc(C3CCN(CCc4cccc(S(=O)(=O)[C@H]5CC[C@H](Nc6ncc(C(F)(F)F)c(-c7cnn(CC(F)(F)F)c7)n6)CC5)c4)CC3)cc21` [Example 95, 1-(1-methyl-6-(1-(3-(((1r,4r)-4-((4-(1-(2,2,2-trifluoroethyl)-1H-pyrazol-4-yl)-5-(trifluoromethyl)pyrimidin-2-yl)-amino)-cyclohexyl)sulfonyl)phenethyl)piperidin-4-yl)-1H-indazol-3-yl)dihydro-pyrimidine-2,4(1H,3H)-dione] gave an IC50 of 100 to 500 nM. In the case of `Cn1nc(N2CCC(=O)NC2=O)c2ccc(C3CCN(CC(C)(C)Cc4cccc(S(=O)(=O)N5CCC(Nc6ncc(C(F)(F)F)c(-c7cnn(CC(F)(F)F)c7)n6)CC5)c4)CC3)cc21` [Example 98, 1-(6-(1-(2,2-dimethyl-3-(3-((4-((4-(1-(2,2,2-trifluoroethyl)-1H-pyrazol-4-yl)-5-(trifluoromethyl)pyrimidin-2-yl)amino)-piperidin-1-yl)sulfonyl)-phenyl)propyl)-piperidin-4-yl)-1-methyl-1H-indazol-3-yl)dihydro-pyrimidine-2,4(1H,3H)-dione], the IC50 is reported as < 100 nM. In the case of `Cn1nc(N2CCC(=O)NC2=O)c2ccc(C3CCN(Cc4cccc(S(=O)(=O)N5CC[C@H](Nc6ncc(C(F)(F)F)c(-c7cnn(CC(F)F)c7)n6)[C@H](F)C5)c4)CC3)cc21` (racemic) [Example 37], the IC50 is reported as < 100 nM. `O=C1CCC(N2Cc3cc(N4CCC(CN5CCN(c6cccc(S(=O)(=O)N7CCC(Nc8ncc(C(F)(F)F)c(-c9cnn(CC(F)(F)F)c9)n8)CC7)c6)CC5)CC4)ccc3C2=O)C(=O)N1` (centres unmarked) [Example 45, 3-(1-oxo-5-(4-((4-(3-((4-((4-(1-(2,2,2-trifluoroethyl)-1H-pyrazol-4-yl)-5-(trifluoromethyl)pyrimidin-2-yl)-amino)-piperidin-1-yl)sulfonyl)-phenyl)piperazin-1-yl)methyl)-piperidin-1-yl)isoindolin-2-yl)-piperidine-2,6-dione] showed an IC50 of 100 to 500 nM. `O=C1CCN(C2CCN(Cc3cccc(S(=O)(=O)N4CCC(Nc5ncc(C(F)(F)F)c(-c6cnn(CC(F)(F)F)c6)n5)CC4)c3)CC2)C(=O)N1` [Example 46] showed an IC50 of 100 to 500 nM.
